The values below come from ChEMBL document CHEMBL5214926, “Recent contribution of medicinally active 2-aminothiophenes: A privileged scaffold for drug discovery” (Eur J Med Chem, 2022).

The structures appear in SMILES notation. Converted amounts (≈) assume the structure as drawn.

The subject of one series is Enterococcus faecalis. The experiment in a line: Antibacterial activity against Enterococcus faecalis assessed as bacterial growth inhibition. Type of series: functional.
The next series has as its system Staphylococcus coagulans. Description: Antimicrobial activity against Staphylococcus coagulans assessed as microbial growth inhibition incubated for 24 hrs by disc diffusion assay. The class given is functional. On the technique in general: A growth-free zone around the sample is the usual read-out of agar diffusion tests.
The subject of a further series is Heyndrickxia coagulans. The experiment in a line: Antibacterial activity against Bacillus coagulans assessed as bacterial growth inhibition. The class given is functional.
The test system of another series is NCI-H1299. The experiment in a line: Cytotoxicity against human NCI-H1299 cells assessed as cell growth inhibition incubated for 48 hrs by SRB assay. Type of series: functional, cell-based. The following applies: NCI-H1299, 48 h. For orientation: The SRB assay estimates cell density from bound dye.
Series [1] has as its system MCF7. Description: Cytotoxicity against human MCF7 cells assessed as cell growth inhibition incubated for 48 hrs by MTT assay. The class given is functional, cell-based. The settings on record: MCF7, 48 h. In general terms: Formazan colour is commonly taken as a measure of viable cells.
Series [2] has as its system HepG2. Description: Cytotoxicity against human HepG2 cells assessed as cell growth inhibition incubated for 48 hrs by MTT assay. Type of series: functional, cell-based.
The next series deals with Leishmania amazonensis. The experiment in a line: Anti-promastigote activity against Leishmania amazonensis (IFLA/BR/67/PH8) assessed as promastigote growth inhibition incubated for 72 hrs by microscopic analysis. The class given is functional, organism-based. The settings on record: Leishmania amazonensis, IFLA/BR/67/PH8, 72 h.
A further series relates to DNA. Description: Binding affinity to parasitic DNA assessed as intrinsic binding constant by UV-visible absorption spectrophotometry. The class given is nucleic-acid assay.
For series [3], the system named is Trichophyton tonsurans. Description: Antifungal activity against Trichophyton tonsurans 700 assessed as fungal growth inhibition by spectrophotometry. The class given is functional.
Series [4] has as its system Trichophyton mentagrophytes. Description: Antifungal activity against Trichophyton mentagrophytes 5432 assessed as fungal growth inhibition by spectrophotometry. The class given is functional.
Series [5] has as its system Epidermophyton floccosum. The experiment in a line: Antifungal activity against Epidermophyton floccosum 6999 assessed as fungal growth inhibition by spectrophotometry. The class given is functional.
For another series, the system named is Trichophyton rubrum. The experiment in a line: Antifungal activity against Trichophyton rubrum 6753 assessed as fungal growth inhibition by spectrophotometry. Type of series: functional.
Series [6] concerns Trichophyton tonsurans. Description: Antifungal activity against Trichophyton tonsurans 2822 assessed as fungal growth inhibition by spectrophotometry. Type of series: functional.
The subject of series [7] is Trichophyton mentagrophytes. The experiment in a line: Antifungal activity against Trichophyton mentagrophytes 5431 assessed as fungal growth inhibition by spectrophotometry. Type of series: functional.
In the next series the test system is Candida parapsilosis. Description: Antifungal activity against Candida parapsilosis ATCC 22019 assessed as fungal growth inhibition by spectrophotometry. The settings on record: Lodderomyces parapsilosis. The class given is functional.
The subject of series [8] is Epidermophyton floccosum. Description: Antifungal activity against Epidermophyton floccosum 6754 assessed as fungal growth inhibition by spectrophotometry. Type of series: functional.
The species named for another series is Homo sapiens. Description: Inhibition of CaCC (unknown origin) current potentiation at 10 uM relative to control.
Series [9] is described as follows: Cytotoxicity against human WI-38 cells assessed as cell growth inhibition incubated for 2 days by MTT assay. The class given is toxicity, cell-based.
Series [10] has as its system HepG2. The experiment in a line: Cytotoxicity against human HepG2 cells assessed as cell growth inhibition incubated for 2 days by MTT assay. Type of series: functional, cell-based. The following applies: HepG2, 48 h.
The test system of series [11] is MCF7. Description: Cytotoxicity against human MCF7 cells assessed as cell growth inhibition incubated for 2 days by MTT assay. The class given is functional, cell-based. The settings on record: MCF7, 48 h.
Another series concerns the target T1, TGF-beta receptor type-1 (Homo sapiens, UniProt P36897).
T1 sequence (P36897 whole entry): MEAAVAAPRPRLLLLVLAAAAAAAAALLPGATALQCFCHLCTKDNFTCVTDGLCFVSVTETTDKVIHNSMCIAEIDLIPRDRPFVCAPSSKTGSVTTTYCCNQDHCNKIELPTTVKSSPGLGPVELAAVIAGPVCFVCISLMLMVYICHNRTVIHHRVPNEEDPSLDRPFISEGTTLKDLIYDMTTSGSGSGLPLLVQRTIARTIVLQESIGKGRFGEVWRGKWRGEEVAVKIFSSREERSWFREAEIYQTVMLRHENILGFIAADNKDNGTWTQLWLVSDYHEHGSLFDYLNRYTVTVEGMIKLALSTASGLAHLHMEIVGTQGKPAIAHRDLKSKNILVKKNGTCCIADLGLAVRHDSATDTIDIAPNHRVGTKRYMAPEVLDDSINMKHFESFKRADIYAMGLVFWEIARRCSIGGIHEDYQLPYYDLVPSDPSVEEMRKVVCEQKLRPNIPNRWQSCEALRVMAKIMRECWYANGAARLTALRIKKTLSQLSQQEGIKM
Description: Inhibition of human TGF-beta-R1 using TMB substrate incubated for 2.5 hrs by microplate reader analysis.

The subject of a further series is PC-3. The experiment in a line: Cytotoxicity against human PC-3 cells assessed as cell growth inhibition incubated for 2 days by MTT assay. Type of series: functional, cell-based. The following applies: PC-3, 48 h.
The test system of series [12] is Bacillus subtilis. The experiment in a line: Antibacterial activity against Bacillus subtilis NCIM 2079 assessed as reduction in bacterial growth incubated for 8 hrs by absorbance based assay. The settings on record: NCIM 2079, 8 h. The class given is functional, organism-based.
The subject of another series is Pseudomonas aeruginosa. The experiment in a line: Antibacterial activity against Pseudomonas aeruginosa NCIM 2036 assessed as bacterial growth inhibition incubated for 8 hrs by absorbance based assay. The class given is functional.
In series [13] the test system is Mycobacterium tuberculosis. The experiment in a line: Antimycobacterial activity against Mycobacterium tuberculosis H37Ra assessed as bacterial growth inhibition incubated for 8 to 12 days by XTT reduction menadione assay. Type of series: functional. The settings on record: time 8-12 day.
A further series deals with Escherichia coli. Description: Antibacterial activity against Escherichia coli NCIM 2688 assessed as bacterial growth inhibition incubated for 8 hrs by absorbance based assay. The class given is functional.
Series [14] has as its system Staphylococcus aureus. The experiment in a line: Antibacterial activity against Staphylococcus aureus NCIM 2010 assessed as bacterial growth inhibition incubated for 8 hrs. The class given is functional, organism-based. The following applies: NCIM 2010, 8 h.
For series [15], the system named is Staphylococcus aureus. The experiment in a line: Antibacterial activity against Staphylococcus aureus NCIM 2010 assessed as reduction in bacterial growth incubated for 8 hrs by absorbance based assay. The following applies: NCIM 2010, 8 h. Type of series: functional, organism-based.
The subject of series [16] is Bacillus subtilis. Description: Antibacterial activity against Bacillus subtilis NCIM 2079 assessed as bacterial growth inhibition incubated for 8 hrs by absorbance based assay. The class given is functional.
Series [17] deals with Mycobacterium tuberculosis. The experiment in a line: Antimycobacterial activity against Mycobacterium tuberculosis H37Ra incubated for 8 to 12 days by XTT reduction menadione assay. The class given is functional. The following applies: time 8-12 day.
For series [18], the system named is Staphylococcus aureus. Description: Antibacterial activity against Staphylococcus aureus NCIM 2010 assessed as bacterial growth inhibition incubated for 8 hrs by absorbance based assay. The class given is functional.

For orientation: MIC means the lowest concentration found to suppress growth. On to `Cc1sc(NC(=O)c2cc(O)c(O)c(O)c2)c(C#N)c1C`, for which the MIC was determined as 0.25 µg/mL (≈ 0.821 µM) in the series on Enterococcus faecalis, 0.49 µM (≈ 0.149 µg/mL) in the series with Staphylococcus coagulans and 0.15 µg/mL (≈ 0.493 µM) with Heyndrickxia coagulans.

For orientation: IC50 means the concentration that gives 50% inhibition. Regarding `Cc1cc(C)c2c(NCC(=O)Nc3sc4c(c3C#N)CCCC4)n[nH]c2n1`, the half-maximal inhibitory concentration (IC50) in the series on NCI-H1299 worked out at 13.7 µM.

With `CC(=O)c1ccc(Nc2c(C(=O)/C=C/c3ccccc3)sc(N)c2C#N)cc1`, the half-inhibitory concentration (IC50) in the series with MCF7 [1] was 67.5 µM; in the series on HepG2 [2] (Homo sapiens, HepG2, 48 h), 73.6 µM.

A word on the EC50: it is the concentration needed to bring the measured effect to its halfway point. For the compound `COc1ccc2nc3cc(Cl)ccc3c(Nc3sc4c(c3C#N)CCCC4)c2c1`, the EC50 with Leishmania amazonensis turned out to be 11 µM. In the series on DNA, the Kb is 1 10^4/M.

Take `N#Cc1ccsc1/N=C/c1c[nH]c2cccc([N+](=O)[O-])c12`: the MIC was found to be 128 µg/mL (≈ 432 µM) in the series with Trichophyton tonsurans [3]; 512 µg/mL (≈ 1730 µM) in series [4]; 1020 µg/mL (≈ 3460 µM) in the series with Epidermophyton floccosum [5]; 64 µg/mL (≈ 216 µM) in the series with Trichophyton rubrum; 512 µg/mL (≈ 1730 µM) with Trichophyton tonsurans [6].

Regarding `N#Cc1c(NC(=O)c2cc(O)c(O)c(O)c2)sc2c1CCCCC2`, the MIC with Enterococcus faecalis came out at 0.25 µg/mL (≈ 0.726 µM); in the series with Staphylococcus coagulans, 0.43 µM (≈ 0.148 µg/mL); with Heyndrickxia coagulans, 0.15 µg/mL (≈ 0.436 µM).

Consider `COc1cc(/C=N/c2sccc2C#N)cc(OC)c1OC`, for which the minimum inhibitory concentration (MIC) in the series with Trichophyton tonsurans [3] was 128 µg/mL (≈ 423 µM); in [7], 256 µg/mL (≈ 847 µM); in [4] it was 128 µg/mL (≈ 423 µM); in the series on Epidermophyton floccosum [5] it was 256 µg/mL (≈ 847 µM); with Trichophyton rubrum, 64 µg/mL (≈ 212 µM).

Take `N#Cc1ccsc1/N=C/c1ccc([N+](=O)[O-])cc1`: the minimal inhibitory concentration (MIC) in the series on Trichophyton tonsurans [3] was 512 µg/mL (≈ 1990 µM); in the series with Candida parapsilosis, 1020 µg/mL (≈ 3980 µM); in the series on Epidermophyton floccosum [8], 512 µg/mL (≈ 1990 µM); in the series on Epidermophyton floccosum [5] it was 1020 µg/mL (≈ 3980 µM); with Trichophyton rubrum it was 64 µg/mL (≈ 249 µM).

In general, inhibition refers to the percentage by which the read-out fell short of the control. In the case of `C=CCNC(=S)Nc1sc2c(c1C(=O)OC)CCCC2`, the inhibition in the series listed under Homo sapiens worked out at 40%.

For `COc1ccc2nc3cc(Cl)ccc3c(Nc3sc4c(c3C#N)CCC4)c2c1`, in the series with Leishmania amazonensis, the EC50 came out at 9.6 µM. Besides, in the series with DNA, the Kb is 1 10^4/M.

On to `COc1ccc(OC)c(/C=C/C(=O)Nc2sc3c(c2C#N)CCCC3)c1`, for which the IC50 at 2 days in series [9] amounted to 260 µM. In addition, the half-inhibitory concentration (IC50) in the series with HepG2 [10] is 2.85 µM; with MCF7 [11], 3.5 µM; on TGF-beta receptor type-1, 0.087 µM; in the series with PC-3, 2.64 µM.

Regarding `N#Cc1c(NC(=O)CN/N=C/c2cccc([N+](=O)[O-])c2)sc2c1CCCC2`, in the series on NCI-H1299, the half-inhibitory concentration (IC50) worked out at 18.5 µM.

Consider `CC(=O)c1ccc(Nc2c(C(=O)/C=C/c3ccccc3)sc(/N=C/c3ccccc3)c2C#N)cc1`, for which the half-inhibitory concentration (IC50) amounted to 19.1 µM in the series on MCF7 [1]; 19.1 µM in the series on HepG2 [2] (Homo sapiens, HepG2, 48 h); 26.2 µM with HepG2 [2] (hepg2).

For `N#Cc1c(NC(=O)/C=C/c2ccc(O)cc2)sc2c1CCCC2`, the concentration for half-maximal inhibition (IC50) was determined as 7.9 µM with HepG2 [10], 7.5 µM with MCF7 [11] and 5.2 µM with PC-3.

As for `COC(=O)c1c(NC(=O)N[C@@H](C(=O)N[C@@H]2C(=O)N3C(C(=O)O)=C(C)CS[C@H]23)c2ccccc2)sc2c1CCCCCC2`, the EC50 amounted to 0.26 µM in the series on Bacillus subtilis [12], 0.18 µM in the series with Staphylococcus aureus [14] and 0.18 µM in the series on Staphylococcus aureus [15]. Besides, the minimal inhibitory concentration (MIC) with Pseudomonas aeruginosa is above 10 µg/mL; with Escherichia coli, above 10 µg/mL; in the series on Bacillus subtilis [16], 2.35 µg/mL (≈ 3.84 µM); in series [17] it was 0.782 µg/mL (≈ 1.28 µM); in the series on Staphylococcus aureus [18], 0.46 µg/mL (≈ 0.751 µM). For the same compound, the EC5 in [13] worked out at 0.782 µM.

Take `CCOC(=O)c1c(NC(=O)/C=C/c2ccc(O)cc2)sc2c1CCCC2`: the IC50 with HepG2 [10] came to 8.3 µM; with MCF7 [11], 8.27 µM; in the series with PC-3 it was 6.29 µM.

For the compound `N#Cc1ccsc1/N=C/c1cccc([N+](=O)[O-])c1`, the MIC in the series on Epidermophyton floccosum [5] turned out to be 64 µg/mL (≈ 249 µM); with Trichophyton rubrum, 128 µg/mL (≈ 498 µM).

On to `N#Cc1ccsc1/N=C/c1c(Cl)cccc1Cl`, for which the MIC in the series on Trichophyton tonsurans [3] was 64 µg/mL (≈ 228 µM); with Trichophyton rubrum, 32 µg/mL (≈ 114 µM); in the series with Trichophyton tonsurans [6] it was 256 µg/mL (≈ 910 µM).
